Key:
[1] = biological target: T1, Transient receptor potential cation channel subfamily V member 4 (Homo sapiens, UniProt Q9HBA0); test: Antagonist activity at human TRPV4
[2] = biological target: T1, Transient receptor potential cation channel subfamily V member 4; test: Antagonist activity at TRPV4 (unknown origin) expressed in Flp-In-CHO cells assessed as inhibition of GSK1016790A induced Ca2+ influx by calcium imaging method; format: cell-based
[3] = tested on: Mus musculus; test: Antiinflammatory activity in LPS-induced acute lung injury mouse model assessed as BALF protein concentration at 1 mg/kg, ip; format: functional
[4] = tested on: Mus musculus; test: Antiinflammatory activity in LPS-induced acute lung injury mouse model assessed as pathological score at 1 mg/kg, ip by hematoxylin and eosin staining based analysis; format: functional
[5] = Cytotoxicity against human HUVEC cells assessed as reduction in cell viability; format: toxicity, cell-based

T1 sequence (Q9HBA0 whole entry): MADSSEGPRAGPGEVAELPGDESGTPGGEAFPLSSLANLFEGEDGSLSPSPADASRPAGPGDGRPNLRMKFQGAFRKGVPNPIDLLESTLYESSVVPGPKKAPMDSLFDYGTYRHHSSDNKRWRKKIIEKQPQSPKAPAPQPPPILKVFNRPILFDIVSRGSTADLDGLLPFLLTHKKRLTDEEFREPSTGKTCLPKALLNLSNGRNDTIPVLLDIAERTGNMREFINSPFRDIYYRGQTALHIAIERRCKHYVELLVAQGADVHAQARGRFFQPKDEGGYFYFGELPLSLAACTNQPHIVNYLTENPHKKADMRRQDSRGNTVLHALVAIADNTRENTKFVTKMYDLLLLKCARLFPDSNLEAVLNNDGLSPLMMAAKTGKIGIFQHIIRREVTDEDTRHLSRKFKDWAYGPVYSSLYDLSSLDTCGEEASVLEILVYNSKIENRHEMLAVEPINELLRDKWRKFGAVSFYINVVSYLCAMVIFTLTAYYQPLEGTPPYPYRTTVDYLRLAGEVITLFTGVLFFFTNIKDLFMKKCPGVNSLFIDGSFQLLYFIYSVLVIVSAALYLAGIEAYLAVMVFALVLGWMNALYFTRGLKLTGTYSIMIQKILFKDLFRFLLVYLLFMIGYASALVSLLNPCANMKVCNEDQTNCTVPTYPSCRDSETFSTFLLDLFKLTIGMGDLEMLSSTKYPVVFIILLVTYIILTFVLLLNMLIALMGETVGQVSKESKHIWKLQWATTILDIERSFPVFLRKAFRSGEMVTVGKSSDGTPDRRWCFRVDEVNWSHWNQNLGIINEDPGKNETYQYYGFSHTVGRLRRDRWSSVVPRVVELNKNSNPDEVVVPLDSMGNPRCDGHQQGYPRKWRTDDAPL

SMILES | IC50 [1] | IC50 [2] | Activity [3] | Activity [4] | CC50 [5]
Cc1c(C(=O)Nc2cccc(C(F)(F)F)c2)cc(-c2ccccc2)n1CCCN1CCOCC1 | 203 nM | 73.6 nM | 1.5 | 5.4 | –
CC(C)C[C@H](NC(=O)c1cc2ccccc2s1)C(=O)N1CCN(C(=O)[C@H](CO)NS(=O)(=O)c2ccc(Cl)cc2Cl)CC1 | – | 122 nM | – | – | –
CC(=O)Nc1c(Cl)c(Cl)cc2c1nc(NC(C)C)n2C1CCN(c2ccc(C3(C#N)CCCC3)cc2)CC1 | – | – | – | – | > 100000 nM
CC(=O)Nc1c(Cl)c(Cl)cc2c1nc(NC(C)C)n2C1CCN(c2ccc(C3(C#N)CCC3)cc2)CC1 | – | – | – | – | > 100000 nM

— ChEMBL document CHEMBL5346883, “Discovery and pharmacological characterization of a novel benzimidazole TRPV4 antagonist with cyanocyclobutyl moiety” (Eur J Med Chem, 2023)
